tested on: test plant species; assay: Post-emergent herbicidal activity test (greenhouse, foliar spray, visual growth reduction); assay type: in vivo; conditions: post-emergence, 336 h, ALOMY: blackgrass (Alopecurus myosuroides), 140 g ai/ha, 14 days after application, read-out: Visual Growth Reduction (%) 14 Days After Application, ALOMY
Method in brief: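 Greenhouse plants at first–second true leaf stage sprayed overhead at 187 L/ha with compound in acetone/water/isopropanol/DMSO/crop oil/X-77 carrier; controls received solvent blank. Injury rated visually after 14 d on a 0–100% scale versus untreated and control plants, converted to growth reduction.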

Question: With `COC(=O)c1nc(-c2ccc(Cl)c(OC)c2F)cc(Cl)c1Cl` [F76, methyl 3,4-dichloro-6-(4-chloro-2-fluoro-3-methoxyphenyl)picolinate] as the compound, how does the pest or weed control at 140 g/ha read?
Answer: 0 to 29%

Question: How did the pest or weed control at 140 g/ha turn out when `O=C(O)c1nc(-c2cc3c(cc2Cl)OCO3)c(F)cc1Cl` [F196, 3-Chloro-6-(6-chlorobenzo[d][1,3]dioxol-5-yl)-5-fluoropicolinic acid] was run?
Answer: 0 to 29%

same assay, conditions: post-emergence, 336 h, AMARE: redroot pigweed (Amaranthus retroflexus), 140 g ai/ha, 14 days after application, read-out: Visual Growth Reduction (%) 14 Days After Application, AMARE

Question: How did the pest or weed control at 140 g/ha turn out when `COC(=O)c1nc(-c2ccc(Cl)c(OC)c2F)cc(Cl)c1Cl` [F76, methyl 3,4-dichloro-6-(4-chloro-2-fluoro-3-methoxyphenyl)picolinate] was run?
Answer: 30 to 44%

Question: With `O=C(O)c1nc(-c2cc3c(cc2Cl)OCO3)c(F)cc1Cl` [F196, 3-Chloro-6-(6-chlorobenzo[d][1,3]dioxol-5-yl)-5-fluoropicolinic acid] as the compound, how does the pest or weed control at 140 g/ha read?
Answer: 75 to 84%

same assay, conditions: post-emergence, 336 h, AVEFA: wild oat (Avena fatua), 140 g ai/ha, 14 days after application, read-out: Visual Growth Reduction (%) 14 Days After Application, AVEFA

Question: How did the pest or weed control at 140 g/ha turn out when `COC(=O)c1nc(-c2ccc(Cl)c(OC)c2F)cc(Cl)c1Cl` [F76, methyl 3,4-dichloro-6-(4-chloro-2-fluoro-3-methoxyphenyl)picolinate] was run?
Answer: 0 to 29%

Question: For `O=C(O)c1nc(-c2cc3c(cc2Cl)OCO3)c(F)cc1Cl` [F196, 3-Chloro-6-(6-chlorobenzo[d][1,3]dioxol-5-yl)-5-fluoropicolinic acid], which pest or weed control at 140 g/ha is on record?
Answer: 0 to 29%

same assay, conditions: post-emergence, 336 h, CHEAL: lambsquarters (Chenopodium album), 140 g ai/ha, 14 days after application, read-out: Visual Growth Reduction (%) 14 Days After Application, CHEAL

Question: With `COC(=O)c1nc(-c2ccc(Cl)c(OC)c2F)cc(Cl)c1Cl` [F76, methyl 3,4-dichloro-6-(4-chloro-2-fluoro-3-methoxyphenyl)picolinate] as the compound, how does the pest or weed control at 140 g/ha read?
Answer: 45 to 59%

Question: `O=C(O)c1nc(-c2cc3c(cc2Cl)OCO3)c(F)cc1Cl` [F196, 3-Chloro-6-(6-chlorobenzo[d][1,3]dioxol-5-yl)-5-fluoropicolinic acid] was tested. Which pest or weed control at 140 g/ha did it give?
Answer: 85 to 94%

same assay, conditions: post-emergence, 336 h, CIRAR: canada thistle (Cirsium arvense), 140 g ai/ha, 14 days after application, read-out: Visual Growth Reduction (%) 14 Days After Application, CIRAR

Question: `COC(=O)c1nc(-c2ccc(Cl)c(OC)c2F)cc(Cl)c1Cl` [F76, methyl 3,4-dichloro-6-(4-chloro-2-fluoro-3-methoxyphenyl)picolinate] was tested. Which pest or weed control at 140 g/ha did it give?
Answer: 0 to 29%

Question: With `O=C(O)c1nc(-c2cc3c(cc2Cl)OCO3)c(F)cc1Cl` [F196, 3-Chloro-6-(6-chlorobenzo[d][1,3]dioxol-5-yl)-5-fluoropicolinic acid] as the compound, how does the pest or weed control at 140 g/ha read?
Answer: 0 to 29%

same assay, conditions: post-emergence, 336 h, CYPES: yellow nutsedge (Cyperus esculentus), 140 g ai/ha, 14 days after application, read-out: Visual Growth Reduction (%) 14 Days After Application, CYPES

Question: For `COC(=O)c1nc(-c2ccc(Cl)c(OC)c2F)cc(Cl)c1Cl` [F76, methyl 3,4-dichloro-6-(4-chloro-2-fluoro-3-methoxyphenyl)picolinate], which pest or weed control at 140 g/ha is on record?
Answer: 30 to 44%

Question: With `O=C(O)c1nc(-c2cc3c(cc2Cl)OCO3)c(F)cc1Cl` [F196, 3-Chloro-6-(6-chlorobenzo[d][1,3]dioxol-5-yl)-5-fluoropicolinic acid] as the compound, how does the pest or weed control at 140 g/ha read?
Answer: 0 to 29%

same assay, conditions: post-emergence, 336 h, DIGSA: crabgrass (Digitaria sanguinalis), 140 g ai/ha, 14 days after application, read-out: Visual Growth Reduction (%) 14 Days After Application, DIGSA

Question: `COC(=O)c1nc(-c2ccc(Cl)c(OC)c2F)cc(Cl)c1Cl` [F76, methyl 3,4-dichloro-6-(4-chloro-2-fluoro-3-methoxyphenyl)picolinate] was tested. Which pest or weed control at 140 g/ha did it give?
Answer: 0 to 29%

Question: With `O=C(O)c1nc(-c2cc3c(cc2Cl)OCO3)c(F)cc1Cl` [F196, 3-Chloro-6-(6-chlorobenzo[d][1,3]dioxol-5-yl)-5-fluoropicolinic acid] as the compound, how does the pest or weed control at 140 g/ha read?
Answer: 0 to 29%

same assay, conditions: post-emergence, 336 h, ECHCG: barnyardgrass (Echinochloa crus-galli), 140 g ai/ha, 14 days after application, read-out: Visual Growth Reduction (%) 14 Days After Application, ECHCG

Question: How did the pest or weed control at 140 g/ha turn out when `COC(=O)c1nc(-c2ccc(Cl)c(OC)c2F)cc(Cl)c1Cl` [F76, methyl 3,4-dichloro-6-(4-chloro-2-fluoro-3-methoxyphenyl)picolinate] was run?
Answer: 0 to 29%

Question: For `O=C(O)c1nc(-c2cc3c(cc2Cl)OCO3)c(F)cc1Cl` [F196, 3-Chloro-6-(6-chlorobenzo[d][1,3]dioxol-5-yl)-5-fluoropicolinic acid], which pest or weed control at 140 g/ha is on record?
Answer: 0 to 29%

same assay, conditions: post-emergence, 336 h, IPOHE: ivy-leaf morning glory (Ipomoea hederacea), 140 g ai/ha, 14 days after application, read-out: Visual Growth Reduction (%) 14 Days After Application, IPOHE

Question: How did the pest or weed control at 140 g/ha turn out when `COC(=O)c1nc(-c2ccc(Cl)c(OC)c2F)cc(Cl)c1Cl` [F76, methyl 3,4-dichloro-6-(4-chloro-2-fluoro-3-methoxyphenyl)picolinate] was run?
Answer: 30 to 44%

Question: How did the pest or weed control at 140 g/ha turn out when `O=C(O)c1nc(-c2cc3c(cc2Cl)OCO3)c(F)cc1Cl` [F196, 3-Chloro-6-(6-chlorobenzo[d][1,3]dioxol-5-yl)-5-fluoropicolinic acid] was run?
Answer: 95 to 100%

same assay, conditions: post-emergence, 336 h, KCHSC: kochia (Bassia scoparia), 140 g ai/ha, 14 days after application, read-out: Visual Growth Reduction (%) 14 Days After Application, KCHSC

Question: With `O=C(O)c1nc(-c2cc3c(cc2Cl)OCO3)c(F)cc1Cl` [F196, 3-Chloro-6-(6-chlorobenzo[d][1,3]dioxol-5-yl)-5-fluoropicolinic acid] as the compound, how does the pest or weed control at 140 g/ha read?
Answer: 60 to 74%

same assay, conditions: post-emergence, 336 h, ORYSA: rice (Oryza sativa), 140 g ai/ha, 14 days after application, read-out: Visual Growth Reduction (%) 14 Days After Application, ORYSA

Question: `COC(=O)c1nc(-c2ccc(Cl)c(OC)c2F)cc(Cl)c1Cl` [F76, methyl 3,4-dichloro-6-(4-chloro-2-fluoro-3-methoxyphenyl)picolinate] was tested. Which pest or weed control at 140 g/ha did it give?
Answer: 0 to 29%

Question: Which pest or weed control at 140 g/ha does the source give for `O=C(O)c1nc(-c2cc3c(cc2Cl)OCO3)c(F)cc1Cl` [F196, 3-Chloro-6-(6-chlorobenzo[d][1,3]dioxol-5-yl)-5-fluoropicolinic acid] here?
Answer: 0 to 29%

same assay, conditions: post-emergence, 336 h, SETFA: giant foxtail (Setaria faberi), 140 g ai/ha, 14 days after application, read-out: Visual Growth Reduction (%) 14 Days After Application, SETFA

Question: `COC(=O)c1nc(-c2ccc(Cl)c(OC)c2F)cc(Cl)c1Cl` [F76, methyl 3,4-dichloro-6-(4-chloro-2-fluoro-3-methoxyphenyl)picolinate] was tested. Which pest or weed control at 140 g/ha did it give?
Answer: 0 to 29%

Question: How did the pest or weed control at 140 g/ha turn out when `O=C(O)c1nc(-c2cc3c(cc2Cl)OCO3)c(F)cc1Cl` [F196, 3-Chloro-6-(6-chlorobenzo[d][1,3]dioxol-5-yl)-5-fluoropicolinic acid] was run?
Answer: 0 to 29%

same assay, conditions: post-emergence, 336 h, SORVU: grain sorghum (Sorghum vulgare), 140 g ai/ha, 14 days after application, read-out: Visual Growth Reduction (%) 14 Days After Application, SORVU

Question: How did the pest or weed control at 140 g/ha turn out when `COC(=O)c1nc(-c2ccc(Cl)c(OC)c2F)cc(Cl)c1Cl` [F76, methyl 3,4-dichloro-6-(4-chloro-2-fluoro-3-methoxyphenyl)picolinate] was run?
Answer: 0 to 29%

Question: Which pest or weed control at 140 g/ha does the source give for `O=C(O)c1nc(-c2cc3c(cc2Cl)OCO3)c(F)cc1Cl` [F196, 3-Chloro-6-(6-chlorobenzo[d][1,3]dioxol-5-yl)-5-fluoropicolinic acid] here?
Answer: 45 to 59%

same assay, conditions: post-emergence, 336 h, STEME: common chickweed (Stellaria media), 140 g ai/ha, 14 days after application, read-out: Visual Growth Reduction (%) 14 Days After Application, STEME

Question: How did the pest or weed control at 140 g/ha turn out when `COC(=O)c1nc(-c2ccc(Cl)c(OC)c2F)cc(Cl)c1Cl` [F76, methyl 3,4-dichloro-6-(4-chloro-2-fluoro-3-methoxyphenyl)picolinate] was run?
Answer: 0 to 29%

Question: For `O=C(O)c1nc(-c2cc3c(cc2Cl)OCO3)c(F)cc1Cl` [F196, 3-Chloro-6-(6-chlorobenzo[d][1,3]dioxol-5-yl)-5-fluoropicolinic acid], which pest or weed control at 140 g/ha is on record?
Answer: 0 to 29%

same assay, conditions: post-emergence, 336 h, TRZAS: wheat, spring (Triticum aestivum), 140 g ai/ha, 14 days after application, read-out: Visual Growth Reduction (%) 14 Days After Application, TRZAS

Question: `COC(=O)c1nc(-c2ccc(Cl)c(OC)c2F)cc(Cl)c1Cl` [F76, methyl 3,4-dichloro-6-(4-chloro-2-fluoro-3-methoxyphenyl)picolinate] was tested. Which pest or weed control at 140 g/ha did it give?
Answer: 0 to 29%

Question: Which pest or weed control at 140 g/ha does the source give for `O=C(O)c1nc(-c2cc3c(cc2Cl)OCO3)c(F)cc1Cl` [F196, 3-Chloro-6-(6-chlorobenzo[d][1,3]dioxol-5-yl)-5-fluoropicolinic acid] here?
Answer: 0 to 29%

From patent publication US20230017045A1, “PYRIDINE AND PYRIMIDINE CARBOXYLATE HERBICIDES AND METHODS OF USE THEREOF” (Dow AgroSciences LLC, priority 2017, published 2023)
